Laboratory results as given in ChEMBL document CHEMBL1142688, “Development and preliminary optimization of indole-N-acetamide inhibitors of hepatitis C virus NS5B polymerase” (J Med Chem, 2005).

Assays:
[1] = target: T1, RNA-directed RNA polymerase (Hepacivirus hominis, UniProt O39930); assay: Inhibitory activity against RNA dependent RNA polymerase nonstructural protein 5B in hepatitis C virus; n=1
[2] = (§1) Cytotoxic concentration against hepatitis C virus; type: functional, Hepacivirus hominis
[3] = target: T1, RNA-directed RNA polymerase; assay: Inhibitory concentration against RNA dependent RNA polymerase nonstructural protein 5B of hepatitis C virus
[4] = Half life after administration of 20 mg/kg in dog; type: ADME, organism-based, Canis lupus familiaris; set-up: dose 20 mg/kg; conditions: in vivo
[5] = Total clearance after administration of 20 mg/kg in dog; type: ADME, organism-based, Canis lupus familiaris; set-up: dose 20 mg/kg; conditions: in vivo
Hepatitis C virus [6] = assay: Effective concentration to inhibit RNA replication in hepatitis C virus; type: functional, organism-based, Hepacivirus hominis
Hepatitis C virus [7] = assay: as §1; type: functional, Hepacivirus hominis
[8] = target: T1, RNA-directed RNA polymerase; assay: Effective concentration to inhibit the activity of RNA dependent RNA polymerase nonstructural protein 5B in hepatitis C virus; n=1
[9] = target: T1, RNA-directed RNA polymerase; assay: Inhibitory concentration against NS5B polymerase of Hepatitis C virus; n=1
Hepacivirus hominis = assay: Concentration to inhibit hepatitis C virus replication by 85%; type: functional

T1 sequence (O39930 whole entry): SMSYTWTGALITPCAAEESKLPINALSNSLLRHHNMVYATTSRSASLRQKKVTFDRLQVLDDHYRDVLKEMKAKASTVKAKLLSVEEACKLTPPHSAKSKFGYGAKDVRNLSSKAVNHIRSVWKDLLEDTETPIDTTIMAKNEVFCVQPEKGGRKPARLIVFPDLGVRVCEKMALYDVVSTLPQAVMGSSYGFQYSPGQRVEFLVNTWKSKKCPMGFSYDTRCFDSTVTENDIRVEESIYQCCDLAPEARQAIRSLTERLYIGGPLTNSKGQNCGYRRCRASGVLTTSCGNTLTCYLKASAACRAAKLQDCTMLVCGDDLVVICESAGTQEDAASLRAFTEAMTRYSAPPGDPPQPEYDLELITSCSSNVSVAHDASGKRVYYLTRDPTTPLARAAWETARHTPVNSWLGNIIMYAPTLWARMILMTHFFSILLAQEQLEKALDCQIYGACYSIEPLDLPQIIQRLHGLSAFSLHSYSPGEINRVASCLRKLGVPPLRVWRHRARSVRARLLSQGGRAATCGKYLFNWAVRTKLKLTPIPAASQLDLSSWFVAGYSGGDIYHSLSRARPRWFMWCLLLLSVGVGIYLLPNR

Row | SMILES | IC50 [1] [nM] | CC50 [2] [nM] | further results
1 | COc1ccc(-c2c(C3CCCCC3)c3ccc(C(=O)O)cc3n2CC(=O)N(C)C)cc1 | 18 | > 50000 | –
2 | O=C(O)c1ccc2c(C3CCCCC3)c(-c3ccccc3)n(CC(=O)N3CCOCC3)c2c1 | 26 | > 50000 | –
3 | O=C(O)c1ccc2c(C3CCCCC3)c(-c3ccc(O)cc3)[nH]c2c1 | – | – | IC50 [3]: 4.8 nM
4 | O=C(O)c1ccc2c(c1)nc(-c1ccc(O)cc1F)n2C1CCCCC1 | – | – | IC50 [3]: 1.4 nM
5 | O=C(O)c1ccc2c(c1)cc(-c1ccc(O)cc1)n2C1CCCCC1 | – | – | IC50 [3]: 340 nM
6 | O=C(O)c1ccc2c(C3CCCCC3)c(-c3ccccc3)n(Cc3ccccc3)c2c1 | 37 | – | –
7 | O=C(O)c1ccc2c(C3CCCCC3)c(-c3ccccc3)[nH]c2c1 | 48 | – | –
8 | CN(C)C(=O)Cn1c(-c2ccccc2)c(C2CCCCC2)c2ccc(C(=O)O)cc21 | 59 | > 50000 | half-life [4]: 4.8 h; clearance [5]: 3 mL/min/kg
9 | O=C(O)c1ccc2c(C3CCCCC3)c(-c3ccccc3)n(CCN3CCOCC3)c2c1 | 111 | – | –
10 | O=C(O)c1ccc2c(c1)nc(-c1ccc(OCc3cc(C(=O)N4CCC(O)CC4)ccc3-c3ccc(Cl)cc3)cc1F)n2C1CCCCC1 | – | – | EC50 (Hepatitis C virus [6]): 500 nM; IC50 [3]: < 6 nM
11 | Cc1ccc(-c2c(C3CCCCC3)c3ccc(C(=O)O)cc3n2CC(=O)N2CCOCC2)cc1 | 11 | – | CC50 (Hepatitis C virus [7]): > 50000 nM; EC50 [8]: 300 nM
12 | Cc1ccc(-c2c(C3CCCCC3)c3ccc(C(=O)O)cc3n2CC(=O)N(C)C)cc1 | 17 | > 50000 | –
13 | O=C(O)c1ccc2c(c1)nc(-c1ccc(O)cc1)n2C1CCCCC1 | – | – | IC50 [3]: 3 nM
14 | CN(C)C(=O)Cn1c(-c2ccccc2Cl)c(C2CCCCC2)c2ccc(C(=O)O)cc21 | 372 | > 50000 | –
15 | Cn1c(-c2ccccc2)c(C2CCCCC2)c2ccc(C(=O)O)cc21 | 28 | – | –
16 | O=C(O)c1ccc2c(C3CCCCC3)c(-c3ccccc3)n(S(=O)(=O)c3ccccc3)c2c1 | 485 | – | –
17 | CN(C)C(=O)Cn1c(-c2ccc(Cl)cc2)c(C2CCCCC2)c2ccc(C(=O)O)cc21 | – | > 50000 | IC50 [9]: 15 nM
18 | CN(C)C(=O)Cn1c(-c2ccc(OCc3ccccc3)cc2)c(C2CCCCC2)c2ccc(C(=O)O)cc21 | 6 | > 50000 | Concentration (Hepacivirus hominis): 0.3 µM
19 | CN(C)C(=O)Cn1c(-c2cccc(F)c2)c(C2CCCCC2)c2ccc(C(=O)O)cc21 | 18 | > 50000 | –
20 | CS(=O)(=O)NC(=O)Cn1c(-c2ccccc2)c(C2CCCCC2)c2ccc(C(=O)O)cc21 | 45 | – | –
21 | CN(C)C(=O)Cn1c(-c2cccc(Cl)c2)c(C2CCCCC2)c2ccc(C(=O)O)cc21 | 40 | > 50000 | –
